Experiment in all cases: Weeding effect in post-emergence stage
Holding throughout (type): in vivo
Settings in all cases: 250 g/ha; 2 leaf stage; 15 days after application; fresh weight control rate

Assay [1] deals with Amaranthus retroflexus. A digest of the protocol:
(§1)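 Activity graded 0 (<5%) to 5 (>85%) from fresh-weight control rate, averaged over three repeats, 15 days after a spray-tower application. Plants at 2-leaf stage (2 weeks post-sowing) received 15–500 g/ha of compound formulated in acetone, Tween 80 and methyl oleate synergist (1.5 L/ha).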

The test system of assay [2] is Digitaria sanguinalis. In a few lines: as §1
The test system of assay [3] is Abutilon theophrasti. In a few lines: as §1
In assay [4] the test system is Setaria viridis. In a few lines:
as §1

The subject of assay [5] is Echinochloa crusgali. In a few lines: as §1

This is an account of results in US12643871B2, “Aryl formamide compound containing chiral sulfur oxide or salt thereof, preparation method, herbicidal composition and use thereof” (Qingdao Kingagroot Chemical Compound Co., Ltd., priority 2019, dated 2026).

With `COc1c(C(=O)Nc2nnc(C)o2)ccc(C(F)(F)F)c1[S@+]([O-])CCO` [Compound 334], the “weeding effect in post-emergence stage, activity level (growth control rate), Amaranthus retroflexus” value (shortened to “weeding effect … Amaranthus retroflexus”) in assay [1] is reported as 5 (Level 5: growth control rate is above 85%). Also, in assay [2], the “weeding effect in post-emergence stage, activity level (growth control rate), Digitaria sanguinalis” value (“weeding effect … Digitaria sanguinalis” for short) is given as 5 (Level 5: growth control rate is above 85%). Further, the “weeding effect in post-emergence stage, activity level (growth control rate), Abutilon theophrasti” value (shortened to “weeding effect … Abutilon theophrasti”) in assay [3] was 5 (Level 5: growth control rate is above 85%). Also, the “weeding effect in post-emergence stage, activity level (growth control rate), Setaria viridis” value (shortened to “weeding effect … Setaria viridis”) in assay [4] is on record as 5 (Level 5: growth control rate is above 85%). The “weeding effect in post-emergence stage, activity level (growth control rate), Echinochloa crusgali” value (from here on “weeding effect … Echinochloa crusgali”) in assay [5] is 5 (Level 5: growth control rate is above 85%).

In the case of `COc1c(C(=O)Nc2nnc(C)o2)ccc(C(F)(F)F)c1[S@+]([O-])CCCO` [Compound 335], the “weeding effect … Amaranthus retroflexus” value in assay [1] is 5 (Level 5: growth control rate is above 85%). The “weeding effect … Digitaria sanguinalis” value in assay [2] is listed as 5 (Level 5: growth control rate is above 85%). Further, in assay [3], the “weeding effect … Abutilon theophrasti” value was 5 (Level 5: growth control rate is above 85%). In addition, the “weeding effect … Setaria viridis” value in assay [4] is 5 (Level 5: growth control rate is above 85%). Further, in assay [5], the “weeding effect … Echinochloa crusgali” value is listed as 5 (Level 5: growth control rate is above 85%).

Consider `COc1c(C(=O)Nc2nnc(C)o2)ccc(C(F)(F)F)c1[S@+]([O-])CC(C)O` (stereo partly shown) [Compound 336], for which the “weeding effect … Amaranthus retroflexus” value in assay [1] was 5 (Level 5: growth control rate is above 85%). For the same molecule, the “weeding effect … Digitaria sanguinalis” value in assay [2] is given as 5 (Level 5: growth control rate is above 85%). For the same molecule, in assay [3], the “weeding effect … Abutilon theophrasti” value is reported as 5 (Level 5: growth control rate is above 85%). In addition, the “weeding effect … Setaria viridis” value in assay [4] is reported as 5 (Level 5: growth control rate is above 85%). The “weeding effect … Echinochloa crusgali” value in assay [5] was 5 (Level 5: growth control rate is above 85%).

`COc1c(C(=O)Nc2nnc(C)o2)ccc(C(F)(F)F)c1[S@+]([O-])CC#N` [Compound 337]: the “weeding effect … Amaranthus retroflexus” value in assay [1] is reported as 5 (Level 5: growth control rate is above 85%). Also, the “weeding effect … Digitaria sanguinalis” value in assay [2] was 5 (Level 5: growth control rate is above 85%). Also, the “weeding effect … Abutilon theophrasti” value in assay [3] is 5 (Level 5: growth control rate is above 85%). In assay [4], the “weeding effect … Setaria viridis” value is 5 (Level 5: growth control rate is above 85%). Also, the “weeding effect … Echinochloa crusgali” value in assay [5] is 5 (Level 5: growth control rate is above 85%).

On to `COc1c(C(=O)Nc2nnc(C)o2)ccc(C(F)(F)F)c1[S@+]([O-])CCC#N` [Compound 338], for which, in assay [1], the “weeding effect … Amaranthus retroflexus” value was 5 (Level 5: growth control rate is above 85%). The “weeding effect … Digitaria sanguinalis” value in assay [2] is given as 5 (Level 5: growth control rate is above 85%). In addition, in assay [3], the “weeding effect … Abutilon theophrasti” value was 5 (Level 5: growth control rate is above 85%). Also, the “weeding effect … Setaria viridis” value in assay [4] is listed as 5 (Level 5: growth control rate is above 85%). The “weeding effect … Echinochloa crusgali” value in assay [5] is reported as 5 (Level 5: growth control rate is above 85%).

For the molecule `COc1c(C(=O)Nc2nnc(C)o2)ccc(C(F)(F)F)c1[S@+]([O-])CCCN` [Compound 339], in assay [1], the “weeding effect … Amaranthus retroflexus” value is given as 5 (Level 5: growth control rate is above 85%). Also, the “weeding effect … Digitaria sanguinalis” value in assay [2] was 5 (Level 5: growth control rate is above 85%). Moreover, the “weeding effect … Abutilon theophrasti” value in assay [3] is reported as 5 (Level 5: growth control rate is above 85%). The “weeding effect … Setaria viridis” value in assay [4] is 5 (Level 5: growth control rate is above 85%). In addition, in assay [5], the “weeding effect … Echinochloa crusgali” value is listed as 5 (Level 5: growth control rate is above 85%).

On to `COc1c(C(=O)Nc2nnc(C)o2)ccc(C(F)(F)F)c1[S@+]([O-])CCN(C)C` [Compound 340], for which the “weeding effect … Amaranthus retroflexus” value in assay [1] is on record as 5 (Level 5: growth control rate is above 85%). Further, in assay [2], the “weeding effect … Digitaria sanguinalis” value is listed as 5 (Level 5: growth control rate is above 85%). Further, in assay [3], the “weeding effect … Abutilon theophrasti” value is 5 (Level 5: growth control rate is above 85%). In addition, the “weeding effect … Setaria viridis” value in assay [4] is 5 (Level 5: growth control rate is above 85%). In addition, in assay [5], the “weeding effect … Echinochloa crusgali” value was 5 (Level 5: growth control rate is above 85%).

For `COc1c(C(=O)Nc2nnc(C)o2)ccc(C(F)(F)F)c1[S@+]([O-])CC(=O)O` [Compound 341], in assay [1], the “weeding effect … Amaranthus retroflexus” value is on record as 5 (Level 5: growth control rate is above 85%). For the same molecule, the “weeding effect … Digitaria sanguinalis” value in assay [2] is 5 (Level 5: growth control rate is above 85%). In addition, the “weeding effect … Abutilon theophrasti” value in assay [3] is 5 (Level 5: growth control rate is above 85%). Also, in assay [4], the “weeding effect … Setaria viridis” value was 5 (Level 5: growth control rate is above 85%). The “weeding effect … Echinochloa crusgali” value in assay [5] is given as 5 (Level 5: growth control rate is above 85%).

As to `COC[S@+]([O-])c1c(C(F)(F)F)ccc(C(=O)Nc2nnc(C)o2)c1OC` [Compound 342], the “weeding effect … Amaranthus retroflexus” value in assay [1] is listed as 5 (Level 5: growth control rate is above 85%). Moreover, in assay [2], the “weeding effect … Digitaria sanguinalis” value is given as 5 (Level 5: growth control rate is above 85%). Also, the “weeding effect … Abutilon theophrasti” value in assay [3] is 5 (Level 5: growth control rate is above 85%). The “weeding effect … Setaria viridis” value in assay [4] was 5 (Level 5: growth control rate is above 85%). The “weeding effect … Echinochloa crusgali” value in assay [5] is recorded as 5 (Level 5: growth control rate is above 85%).

For `CCOC[S@+]([O-])c1c(C(F)(F)F)ccc(C(=O)Nc2nnc(C)o2)c1OC` [Compound 343], in assay [1], the “weeding effect … Amaranthus retroflexus” value is 5 (Level 5: growth control rate is above 85%). For the same molecule, the “weeding effect … Digitaria sanguinalis” value in assay [2] is on record as 5 (Level 5: growth control rate is above 85%). Also, the “weeding effect … Abutilon theophrasti” value in assay [3] is 5 (Level 5: growth control rate is above 85%). Also, the “weeding effect … Setaria viridis” value in assay [4] is listed as 5 (Level 5: growth control rate is above 85%). In assay [5], the “weeding effect … Echinochloa crusgali” value is on record as 5 (Level 5: growth control rate is above 85%).

Turning to `COCC[S@@+]([O-])c1c(C(F)(F)F)ccc(C(=O)Nc2nnc(C)o2)c1OC` [Compound 344], the “weeding effect … Amaranthus retroflexus” value in assay [1] was 5 (Level 5: growth control rate is above 85%). For the same molecule, in assay [2], the “weeding effect … Digitaria sanguinalis” value was 5 (Level 5: growth control rate is above 85%). The “weeding effect … Abutilon theophrasti” value in assay [3] was 5 (Level 5: growth control rate is above 85%). Also, in assay [4], the “weeding effect … Setaria viridis” value was 5 (Level 5: growth control rate is above 85%). In addition, the “weeding effect … Echinochloa crusgali” value in assay [5] is reported as 5 (Level 5: growth control rate is above 85%).

Take `COCCC[S@@+]([O-])c1c(C(F)(F)F)ccc(C(=O)Nc2nnc(C)o2)c1OC` [Compound 345]: in assay [1], the “weeding effect … Amaranthus retroflexus” value is reported as 5 (Level 5: growth control rate is above 85%). Further, the “weeding effect … Digitaria sanguinalis” value in assay [2] is reported as 5 (Level 5: growth control rate is above 85%). Also, the “weeding effect … Abutilon theophrasti” value in assay [3] was 5 (Level 5: growth control rate is above 85%). The “weeding effect … Setaria viridis” value in assay [4] is 5 (Level 5: growth control rate is above 85%). Moreover, the “weeding effect … Echinochloa crusgali” value in assay [5] is 5 (Level 5: growth control rate is above 85%).

For `COc1c(C(=O)Nc2nnc(C)o2)ccc(C(F)(F)F)c1[S@+]([O-])C1COC1` [Compound 346], in assay [1], the “weeding effect … Amaranthus retroflexus” value is 5 (Level 5: growth control rate is above 85%). In addition, the “weeding effect … Digitaria sanguinalis” value in assay [2] is listed as 5 (Level 5: growth control rate is above 85%). In addition, in assay [3], the “weeding effect … Abutilon theophrasti” value is 5 (Level 5: growth control rate is above 85%). The “weeding effect … Setaria viridis” value in assay [4] is given as 5 (Level 5: growth control rate is above 85%). Further, in assay [5], the “weeding effect … Echinochloa crusgali” value was 5 (Level 5: growth control rate is above 85%).

Regarding `COc1c(C(=O)Nc2nnc(C)o2)ccc(C(F)(F)F)c1[S+]([O-])COCc1ccccc1` (stereo not shown) [Compound 347], in assay [1], the “weeding effect … Amaranthus retroflexus” value is 5 (Level 5: growth control rate is above 85%). In addition, in assay [2], the “weeding effect … Digitaria sanguinalis” value is listed as 5 (Level 5: growth control rate is above 85%). Moreover, the “weeding effect … Abutilon theophrasti” value in assay [3] is 5 (Level 5: growth control rate is above 85%). In assay [4], the “weeding effect … Setaria viridis” value was 5 (Level 5: growth control rate is above 85%). Moreover, the “weeding effect … Echinochloa crusgali” value in assay [5] is listed as 5 (Level 5: growth control rate is above 85%).
